From patent US20220110846A1, “EMOLLIENT AND CLEANSING AGENT” (Oleon NV, priority 2020, published 2022)

How the values were obtained:
[1] = tested on: Candida albicans, DSM 1386; test: Minimum inhibitory concentration (ISO 20776-1:2019); assay type: cell-based
Description: (§1) Preservatives used were phenoxyethanol and benzyl alcohol.
(§2) Micro-organisms used were: • Staphylococcus aureus, DSM 799; • Candida albicans, DSM 1386.
(§3) Two samples were prepared comprising each 90 wt % of combination 1 and 10 wt % of respectively phenoxyethanol and benzyl alcohol.
(§4) Two comparative samples comprising 100 wt % of respectively phenoxyethanol and benzyl alcohol were also prepared.
(§5) To evaluate the boosting antimicrobial property of the combination according to the invention, the minimum inhibitory concentration (MIC) was determined according to a method based on standard ISO 20776-1:2019.

[2] = tested on: Staphylococcus aureus, DSM 799; test: as above; assay type: cell-based
Description: as §1, §2, §3, §4, §5

## OCc1ccccc1 [Benzyl alcohol, benzyl alcohol]
[1]
  MIC, Candida albicans: 0.30%
[2]
  MIC, Staphylococcus aureus: 0.40%
